Test results reported in US10085449B2, “N-[1-((6-chloropyridin-3-yl)methyl)pyridin-2(1H)-ylidene]-2,2,2- trifluoroacetamide for control of agricultural/horticultural pests” (priority 2010, dated 2018).

Key:
common cutworm = experiment: whole plant or invertebrate; format: in vivo; details: for Insecticidal effects (mortality), common cutworm third-instar larvae: foliar application
In short: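 Cabbage leaf discs (5.0 cm) sprayed with compound at a set concentration in 50% acetone/water with 0.05% Tween 20, air dried, then infested with third-instar larvae. Held at 25° C., 16 h light/8 h dark; dead and live larvae counted after 3 days, two replicates, mortality (%) = dead/(live+dead)×100.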

[1] = test system: small brown planthopper having a low susceptibility to insecticides; experiment: Small brown planthopper control test, pests having a low susceptibility to insecticides (soil drenching); format: in vivo; details: both lines (susceptible and field-collected)
Method: Rice seedlings grown in pots were subjected to soil drenching treatment with solutions of the inventive compounds at a predetermined concentration prepared to 10% acetone/water. Three days after treatment, ten second-instar small brown planthopper larvae having a low susceptibility to insecticides were released onto each seedling. The seedlings and insects were then held in an incubation chamber at 25° C. (16-hour period of light, 8-hour dark period). Three days after released, the numbers of live and dead insects were counted, and the mortality was calculated from the following formula. The test was carried out as two replications. Mortality (%)=[number of dead insects/(number of live insects+number of dead insects)]×100
The pests used in this test were insects that had been raised indoors for successive generations over a long period of time (susceptible line), and insects that had been raised indoors for successive generations after being collected in 2006 within Kumamoto Prefecture (field-collected line).

[2] = test system: house fly crude enzyme extract; experiment: In vitro metabolic test using house fly crude enzyme extract; format: in vitro ADME; details: house fly crude enzyme extract with NADP+ regenerating system, 25° C., 40 hours, LC/MS
Method: As mentioned in Pest Management Science, 59(3), 347-352 (2003) and the Journal of Pesticide Science, 29(2), 110-116 (2004), imidacloprid is known to be inactivated by incurring oxidative metabolism, which is thought to be one mechanism of acquiring resistance to this agent. The following experiment was carried out to confirm the effects in pests which have acquired such resistance.
An amount of 10 mL of a potassium phosphate buffer solution (pH 7.4, containing 1 mM EDTA) was added to adult house flies (0.645 g), and the flies were thoroughly homogenized in a Physcotron (Niti-On Medical and Physical Instruments Manufacturing Co.). The homogenate was then centrifuged at 10,000 g for 15 minutes. The resulting supernatant was additionally centrifuged at 100,000 g for 60 minutes, giving a precipitate. The precipitate was dissolved in 1 mL of a potassium phosphate buffer, and the resulting solution was used as the crude enzyme extract. The enzyme extraction operations were all carried out on ice or at 4° C.
The reagents were mixed in the following proportions within a 1.5 mL tube, and the reaction was effected at 25° C. for 40 hours. Following the reaction, 1 mL of acetone was added and the mixture was stirred, following which the precipitate that formed was centrifuged at 12,000 rpm for 5 minutes. […]

O=C(N=c1ccccn1Cc1ccc(Cl)nc1)C(F)(F)F [Compound 212, N-[1-((6-chloropyridin-3-yl)methyl)pyridin-2(1H)-ylidene]-2,2,2-trifluoroacetamide]
Insecticidal effects (mortality), common cutworm third-instar larvae (common cutworm; 100 ppm): 30 | Insecticidal effects (mortality), common cutworm third-instar larvae (common cutworm; 500 ppm): 100 | mortality at 500 ppm (common cutworm; foliar, 72 h): ≥ 80% | Mortality ([1]; 0.005 mg/seedling soil drenching): at least 90% | Mortality ([1]; 0.01 mg/seedling soil drenching): 100% | Sum of the surface area percentages for the metabolites [2]: 0.08%
